In US20220242812A1, “SWELL1-LRRC8 COMPLEX MODULATORS” (Washington University, priority 2019, published 2022):

Experiments:
[1] = system: endogenous SWELL1 plasma membrane localization; format: cell-based; conditions: 3T3-F442A preadipocytes, 1 or 10 μM 48 h, compared to vehicle or SN071
Method: 3T3-F442A preadipocytes (WT, KO) and differentiated adipocytes without or with SWELL1 overexpression (WT+SWELL1 O/E, KO+SWELL1 O/E) were prepared as described in the Cell culture section on collagen coated coverslips. […] Either anti-SWELL1 (1:400) or anti-Flag (1:1500, Sigma #F3165) antibody were added to the cells and incubated overnight at 4° C. The cells were then washed three times (1×PBS) prior and post to the addition of 1:1000 Alexa Flour 488/568 secondary antibody (anti-rabbit, #A11034 or anti-mouse, #A11004) for 1 hour at RT. Cells were counterstained with nuclear TO-PRO-3 (Life Technologies, #T3605) or DAPI (Invitrogen, #D1306) staining (1 μM) for 20 min followed by three washes with 1×PBS. Coverslips were further mounted on slides with Prolong Diamond anti-fading media. All images were captured using Zeiss LSM700/LSM510 confocal microscope with 63× objective (NA 1.4). SWELL1 membrane localization was quantified by stacking all the z-images and converting it into a binary image where the cytoplasmic intensity per unit area was subtracted from the total cell intensity per unit area using ImageJ software.

HFD-induced T2D mice = test: Metabolic phenotyping (fasting glucose, GTT, ITT) in HFD-fed T2D mice; format: in vivo
Method: All compounds were dissolved in Kolliphor® EL (Sigma, #C5135).
Mice were fasted for 6 h prior to glucose tolerance tests (GTT). Baseline glucose levels at 0 min timepoint (fasting glucose, FG) were measured from blood sample collected from tail snipping using glucometer (Bayer Healthcare LLC). Either 1 g or 0.75 g D-Glucose/kg body weight were injected (i.p.) for lean or HFD mice, respectively and glucose levels were measured at 7, 15, 30, 60, 90 and 120 min timepoints after injection. For insulin tolerance tests (ITTs), the mice were fasted for 4 h. […] All mice and treatment groups were assessed blindly while performing experiments.

[2] = system: islets, glucose-stimulated insulin secretion; test: Islet perifusion GSIS assay, islets from treated T2D mice; format: in vivo
Method: For patch-clamp studies involving primary mouse cells, the mice were anesthesized by injecting Avertin (0.0125 g/ml in H2O) followed by cervical dislocation. […] Perifusion buffer contained (in mM): 120 NaCl, 24 NaHCO3, 4.8 KCl, 2.5 CaCl, 1.2 MgSO4, 10 HEPES, 2.8 glucose, 27.2 mannitol, 0.25% w/v bovine serum albumin, pH 7.4 with NaOH (300 mOsm/kg). Perifusion buffer kept at 37° C. was circulated at 120 μI/min After 48 min of washing with 2.8 mM glucose solution for stabilization, islets were stimulated with the following sequence: 16 min of 16.7 mM glucose, 40 min of 2.8 mM glucose, 10 min of 30 mM KCl, and 12 min of 2.8 mM glucose. Osmolarity was matched by adjusting mannitol concentration when preparing solution containing 16.7 mM glucose. Serial samples were collected either every 1 or 2 min into 96 wells kept at 4° C. Insulin concentrations were further determined using commercially available ELISA kit (Mercodia). The area under the curve (AUC) for the high-glucose induced insulin release was calculated for time points between 50 to 74/84 min. At the completion of the experiments, islets were further lysed by addition of RIPA buffer and the amount of insulin was detected by ELISA.

[3] = In vivo pharmacokinetics in mice; conditions: for bioavailability: male, C57/BL6, mouse, plasma, po, 5 mg/kg, AUCp.o./AUCi.v.; for AUCinf / Cmax / T-half: single dose 5 mg/kg
Method: Male C57/BL6 mice were used in the study and assessed for a single dose (5 mg/kg) administration. The compounds were prepared in Cremaphor for i.p. and p.o dose routes and in 5% ethanol, 10% Tween-20 and water mix for i.v. route at a final concentration of 1 mg/ml. […] The blood samples were collected in tubes with K2 EDTA anticoagulant and further processed to collect plasma by centrifugation at 3500 rpm at 5° C. for 10 min Samples were further processed in LC/MS to determine the concentration of the compounds. Non-compartmental analysis was performed to obtain the PK parameters using the PKPlus software package (Simulation Plus). The area under the plasma concentration-time curve (AUCint) is calculated from time 0 to infinity where the Cmax is the maximal concentration achieved in plasma and t112 is the terminal elimination half-life. Oral bioavailability was calculated as AUCorailAUC1v*100.

[4] = HFD 12-18 weeks, 5 mg/kg/day x 4 days, pre- vs post-treatment
[5] = HFD-induced T2D mice, 5 mg/kg i.p. 4-10 days
[6] = after 16 weeks of HFD feeding, vs vehicle

CCCCC1(C2CCCC2)Cc2cc(OCCCCCC(=O)O)c(Cl)c(Cl)c2C1=O (stereo not shown) [SN-406, 6-((2-butyl-6,7-dichloro-2-cyclopentyl-1-oxo-2,3-dihydro-1H-inden-5-yl)oxy)hexanoic acid]
Plasma membrane (PM) localization of endogenous SWELL1 [1]: enhanced | Fasting blood glucose (HFD-induced T2D mice; [4]): markedly reduced | Glucose tolerance (HFD-induced T2D mice; [4]): improved | Insulin sensitivity based on HOMA-IR (HFD-induced T2D mice; HFD T2D mice, compared to SN071): trend toward improved | Glucose tolerance (HFD-induced T2D mice; HFD T2D mice, separate experiment, compared to SN071): significantly improved | Insulin secretion in perifusion GSIS ([2]; islets of HFD T2D mice, compared to SN071): significantly augmented | Plasma concentrations relative to ICl,SWELL inhibitory concentrations ([3]; 5 mg/kg i.p. dosing): transiently approach | Plasma concentrations relative to ICl,SWELL inhibitory concentrations ([3]; 5 mg/kg p.o. dosing): remain well below | bioavailability [3]: 48% | AUCinf ([3]; Intraperitoneal): 18.18 µg·h/mL | Cmax ([3]; Intraperitoneal): 4.3 µg/mL | T-half ([3]; Intraperitoneal): 1.809 h | AUCinf ([3]; Intravenous): 6.532 µg·h/mL | Cmax ([3]; Intravenous): 15.13 µg/mL | T-half ([3]; Intravenous): 0.7689 h | AUCinf ([3]; Oral): 3.131 µg·h/mL | Cmax ([3]; Oral): 0.6607 µg/mL | T-half ([3]; Oral): 2.058 h

CCCCC1(C2CCCC2)Cc2cc(OCCCC(=O)O)c(Cl)c(Cl)c2C1=O (stereo not shown) [SN-401, 4-((2-butyl-6,7-dichloro-2-cyclopentyl-1-oxo-2,3-dihydro-1H-inden-5-yl)oxy)butanoic acid]
Plasma membrane (PM) localization of endogenous SWELL1 [1]: enhanced | Glucose tolerance (HFD-induced T2D mice; HFD-T2D mice, daily i.p. for 8 weeks (FIG. 31D)): striking effects | Fasting blood glucose (FG) (HFD-induced T2D mice; [5]): normalized | Glucose tolerance (GTT) (HFD-induced T2D mice; [5]): normalized | Insulin-tolerance (ITT) (HFD-induced T2D mice; [5]): markedly improved | ITT (HFD-induced T2D mice; after 16 weeks of HFD feeding (ITT at 18 weeks), vs vehicle): marked improvements | FG (HFD-induced T2D mice; [6]): marked improvements | GTT (HFD-induced T2D mice; [6]): marked improvements | Perifusion GSIS from isolated islets ([2]; HFD mice, 21 weeks HFD): significantly improved | bioavailability [3]: 79% | AUCinf ([3]; Intraperitoneal): 23.03 µg·h/mL | Cmax ([3]; Intraperitoneal): 4.367 µg/mL | T-half ([3]; Intraperitoneal): 2.056 h | AUCinf ([3]; Intravenous): 5.958 µg·h/mL | Cmax ([3]; Intravenous): 5.443 µg/mL | T-half ([3]; Intravenous): 1.428 h | AUCinf ([3]; Oral): 4.682 µg·h/mL | Cmax ([3]; Oral): 0.781 µg/mL | T-half ([3]; Oral): 2.585 h
